These results are taken from patent publication US11505558B1, “Antiviral heterocyclic compounds” (Enanta Pharmaceuticals, Inc., priority 2019, dated 2022).

The subject of this assay is genotype A, "Long" strain RSV. Nature of the assay: RSV-A assay (CPE, ATPlite readout in Hep-2 cells). Format: cell-based. The settings on record: human respiratory syncytial virus, HEp-2, Hep-2 cells, genotype A "Long" strain RSV, MOI 0.1; read-out: Human RSV-A (“Long” strain) EC50. A digest of the protocol: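 Hep-2 cells (8,000/well) received 2-fold serial compound dilutions in duplicate and RSV Long strain at MOI 0.1. After 5 days' incubation, cell health was read as ATP by ATPlite luminescence, with virus-only and uninfected controls defining max and minimum CPE; EC50 reported.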
Background: Cellular ATP, detected with luciferase, serves as a proxy for viable cell number.
As for `Cc1cc(C)nc(Nc2cc(C(=O)NC[C@](O)(c3cc4c(c(-c5ccc(F)cc5)n3)OC[C@]4(C)C(N)=O)C(F)(F)F)cc3cccnc23)n1` [Example 344], the EC50 (usually the concentration at which the effect is half-maximal) was less than 200 nM. Take `COc1cc(Nc2cc(C(=O)NC[C@](O)(c3cc4c(c(-c5ccc(F)cc5)n3)OC[C@]4(C)C(N)=O)C(F)(F)F)cc3cccnc23)nc(OC)n1` [Example 345]: the EC50 was more than 200 nM.

As for `Cc1cnc2c(Nc3ncccn3)cc(C(=O)NC[C@](O)(c3cc4c(c(-c5ccc(F)cc5)n3)OC[C@]4(C)C(N)=O)C(F)(F)F)cc2c1` [Example 346], the EC50 was less than 200 nM. In the case of `C[C@]1(C(N)=O)COc2c1cc([C@@](O)(CNC(=O)c1cc(Nc3cccnn3)c3ncccc3c1)C(F)(F)F)nc2-c1ccc(F)cc1` [Example 347] it was less than 200 nM. In the case of `C[C@]1(C(N)=O)COc2c1cc([C@@](O)(CNC(=O)c1cc(Nc3ccnnc3)c3ncccc3c1)C(F)(F)F)nc2-c1ccc(F)cc1` [Example 348] it was less than 200 nM; in that of `C[C@]1(C(N)=O)COc2c1cc([C@@](O)(CNC(=O)c1cc(Nc3ncc(F)cn3)c3ncccc3c1)C(F)(F)F)nc2-c1ccc(F)cc1` [Example 349], less than 200 nM. In the case of `C[C@]1(C(N)=O)COc2c1cc([C@@](O)(CNC(=O)c1cc(-c3ccncc3)c3ncccc3c1)C(F)(F)F)nc2-c1ccc(F)cc1` [Example 351] it was less than 200 nM; in that of `C[C@]1(C(N)=O)COc2c1cc([C@@](O)(CNC(=O)c1cc(-c3cnc(N)nc3)c3ncccc3c1)C(F)(F)F)nc2-c1ccc(F)cc1` [Example 352], less than 200 nM.

Take `C[C@]1(C(N)=O)COc2c1cc([C@@](O)(CNC(=O)c1cc(-c3ccccn3)c3ncccc3c1)C(F)(F)F)nc2-c1ccc(F)cc1` [Example 353]: the EC50 is less than 200 nM. For `C[C@]1(C(N)=O)COc2c1cc([C@@](O)(CNC(=O)c1cc(-c3ncccn3)c3ncccc3c1)C(F)(F)F)nc2-c1ccc(F)cc1` [Example 354] the value was more than 200 nM. For `CC(C)(C)OC(=O)NCCOc1cc(C(=O)NC[C@](O)(c2cc3c(c(-c4ccc(F)cc4)n2)OC[C@]3(C)C(N)=O)C(F)(F)F)cc2cccnc12` [Example 355] the value was more than 200 nM. `C[C@]1(C(N)=O)COc2c1cc([C@@](O)(CNC(=O)c1cc(OCCN)c3ncccc3c1)C(F)(F)F)nc2-c1ccc(F)cc1` [Example 356]: the EC50 was more than 200 nM. For `CC(=O)NCCOc1cc(C(=O)NC[C@](O)(c2cc3c(c(-c4ccc(F)cc4)n2)OC[C@]3(C)C(N)=O)C(F)(F)F)cc2cccnc12` [Example 357] the value was more than 200 nM. For `C[C@]1(C(N)=O)COc2c1cc([C@@](O)(CNC(=O)c1cc(OCCNS(C)(=O)=O)c3ncccc3c1)C(F)(F)F)nc2-c1ccc(F)cc1` [Example 358] the value was more than 200 nM. In the case of `C[C@]1(C(N)=O)COc2c1cc([C@@](O)(CNC(=O)c1cc(OCCNC(N)=O)c3ncccc3c1)C(F)(F)F)nc2-c1ccc(F)cc1` [Example 359] it was more than 200 nM. On to `C[C@]1(C(N)=O)COc2c1cc([C@@](O)(CNC(=O)c1cc(OCCO)c3ncccc3c1)C(F)(F)F)nc2-c1ccc(F)cc1` [Example 360], for which the EC50 was more than 200 nM.

`COc1nccc2cc(C(=O)NC[C@](O)(c3cc4c(c(-c5ccc(F)cc5)n3)OC[C@]4(C)C(N)=O)C(F)(F)F)ccc12` [Example 362]: the EC50 was more than 200 nM. In the case of `C[C@]1(C(N)=O)COc2c1cc([C@@](O)(CNC(=O)c1cc(OC(F)(F)C(N)=O)c3ncccc3c1)C(F)(F)F)nc2-c1ccc(F)cc1` [Example 365] it was less than 200 nM; in that of `Cc1cnc2c(OCC(N)=O)cc(C(=O)NC[C@](O)(c3cc4c(c(-c5ccc(F)c(Cl)c5)n3)OC[C@]4(C)C(N)=O)C(F)(F)F)cc2c1` [Example 367], less than 200 nM; in that of `CCc1cnc2c(OCC(N)=O)cc(C(=O)NC[C@](O)(c3cc4c(c(-c5ccc(F)cc5)n3)OC[C@]4(C)C(N)=O)C(F)(F)F)cc2c1` [Example 368], less than 200 nM.

With `CCc1cnc2c(OCC(N)=O)cc(C(=O)NC[C@](O)(c3cc4c(c(-c5ccc(F)c(Cl)c5)n3)OC[C@]4(C)C(N)=O)C(F)(F)F)cc2c1` [Example 369], the EC50 is less than 200 nM. For `CC1(NC(=O)COc2cc(C(=O)NC[C@](O)(c3cc4c(c(-c5ccc(F)cc5)n3)OC[C@]4(C)C(N)=O)C(F)(F)F)cc3cccnc23)CC1` [Example 370] the value was more than 200 nM; for `C[C@]1(C(N)=O)COc2c1cc([C@@](O)(CNC(=O)c1cc(OCC(=O)Nc3ccccc3)c3ncccc3c1)C(F)(F)F)nc2-c1ccc(F)cc1` [Example 371], less than 200 nM.

Turning to `CNC(=O)COc1cc(C(=O)NC[C@](O)(c2cc3c(c(-c4ccc(F)cc4)n2)OC[C@]3(C)C(N)=O)C(F)(F)F)cc2cccnc12` [Example 372], the EC50 was less than 200 nM.

In the case of `COCCNC(=O)COc1cc(C(=O)NC[C@](O)(c2cc3c(c(-c4ccc(F)cc4)n2)OC[C@]3(C)C(N)=O)C(F)(F)F)cc2cccnc12` [Example 375], the concentration for a half-maximal effect (EC50) is more than 200 nM. For `C[C@]1(C(N)=O)COc2c1cc([C@@](O)(CNC(=O)c1cc(OCC(=O)NC3CC3)c3ncccc3c1)C(F)(F)F)nc2-c1ccc(F)cc1` [Example 376] the value was more than 200 nM; for `CC(C)(O)CNC(=O)COc1cc(C(=O)NC[C@](O)(c2cc3c(c(-c4ccc(F)cc4)n2)OC[C@]3(C)C(N)=O)C(F)(F)F)cc2cccnc12` [Example 377], more than 200 nM. Consider `C[C@]1(C(N)=O)COc2c1cc([C@@](O)(CNC(=O)c1cc(OCC(=O)NC[C@H](O)CO)c3ncccc3c1)C(F)(F)F)nc2-c1ccc(F)cc1` [Example 378], for which the EC50 was more than 200 nM. In the case of `C[C@]1(C(N)=O)COc2c1cc([C@@](O)(CNC(=O)c1cc(OCC(=O)NC[C@@H](O)CO)c3ncccc3c1)C(F)(F)F)nc2-c1ccc(F)cc1` [Example 379] it was more than 200 nM; in that of `C[C@]1(C(N)=O)COc2c1cc([C@@](O)(CNC(=O)c1cc(OC3(C(N)=O)CC3)c3ncccc3c1)C(F)(F)F)nc2-c1ccc(F)cc1` [Example 381], more than 200 nM; in that of `C[C@]1(C(N)=O)COc2c1cc([C@@](O)(CNC(=O)c1cc(OCC(N)=O)c3ncccc3c1)C(F)(F)F)nc2-c1ccc(F)c(Cl)c1` [Example 382], less than 200 nM. For `CC(Oc1cc(C(=O)NC[C@](O)(c2cc3c(c(-c4ccc(F)cc4)n2)OC[C@]3(C)C(N)=O)C(F)(F)F)cc2cccnc12)C(N)=O` (some centres unmarked) [Example 383] the value was more than 200 nM. For `CNc1cc(C(=O)NC[C@](O)(c2cc3c(c(-c4ccc(F)cc4)n2)OC[C@]3(C)C(N)=O)C(F)(F)F)cc2cccnc12` [Example 385] the value was less than 200 nM; for `C[C@]1(C(N)=O)COc2c1cc([C@@](O)(CNC(=O)c1cc(Oc3ccccn3)c3ncccc3c1)C(F)(F)F)nc2-c1ccc(F)cc1` [Example 386], more than 200 nM. Consider `C[C@]1(C(N)=O)COc2c1cc([C@@](O)(CNC(=O)c1cc(Oc3ncco3)c3ncccc3c1)C(F)(F)F)nc2-c1ccc(F)cc1` [Example 389], for which the EC50 was less than 200 nM.

As to `Cc1nc(COc2cc(C(=O)NC[C@](O)(c3cc4c(c(-c5ccc(F)cc5)n3)OC[C@]4(C)C(N)=O)C(F)(F)F)cc3cccnc23)co1` [Example 391], the EC50 is more than 200 nM. Turning to `C[C@]1(C(N)=O)COc2c1cc([C@@](O)(CNC(=O)c1cc(NC(=O)C3CC3)c3ncccc3c1)C(F)(F)F)nc2-c1ccc(F)cc1` [Example 392], the EC50 is less than 200 nM. In the case of `C[C@]1(C(N)=O)COc2c1cc([C@@](O)(CNC(=O)c1cc(NS(C)(=O)=O)c3ncccc3c1)C(F)(F)F)nc2-c1ccc(F)cc1` [Example 394] it was more than 200 nM. For `C[C@]1(C(N)=O)COc2c1cc([C@@](O)(CNC(=O)c1cc(NS(=O)(=O)C3CC3)c3ncccc3c1)C(F)(F)F)nc2-c1ccc(F)cc1` [Example 395], the EC50 is more than 200 nM.

As for `C[C@]1(C(N)=O)COc2c1cc([C@@](O)(CNC(=O)c1cc(NC(=O)C(F)F)c3ncccc3c1)C(F)(F)F)nc2-c1ccc(F)cc1` [Example 396], the EC50 is less than 200 nM.

As to `C[C@]1(C(N)=O)COc2c1cc([C@@](O)(CNC(=O)c1cc(NC(=O)[C@H]3CCN3)c3ncccc3c1)C(F)(F)F)nc2-c1ccc(F)cc1` [Example 399], the EC50 is more than 200 nM. For `C[C@]1(C(N)=O)COc2c1cc([C@@](O)(CNC(=O)c1cc(NC(=O)[C@@H]3CCN3)c3ncccc3c1)C(F)(F)F)nc2-c1ccc(F)cc1` [Example 400] the value was more than 200 nM; for `C[C@]1(C(N)=O)COc2c1cc([C@@](O)(CNC(=O)c1cc(NC(=O)C3CNC3)c3ncccc3c1)C(F)(F)F)nc2-c1ccc(F)cc1` [Example 401], more than 200 nM; for `Cc1ncc(C(=O)Nc2cc(C(=O)NC[C@](O)(c3cc4c(c(-c5ccc(F)cc5)n3)OC[C@]4(C)C(N)=O)C(F)(F)F)cc3cccnc23)[nH]1` [Example 402], less than 200 nM. In the case of `C[C@]1(C(N)=O)COc2c1cc([C@@](O)(CNC(=O)c1cc(NC(=O)c3ncc[nH]3)c3ncccc3c1)C(F)(F)F)nc2-c1ccc(F)cc1` [Example 403] it was less than 200 nM.

Regarding `C[C@]1(C(N)=O)COc2c1cc([C@@](O)(CNC(=O)c1cc(NC(=O)c3cnn[nH]3)c3ncccc3c1)C(F)(F)F)nc2-c1ccc(F)cc1` [Example 404], the EC50 was more than 200 nM. Regarding `C[C@@H](O)COc1ccc2cc(C(=O)NC[C@](O)(c3cc4c(c(-c5ccc(F)cc5)n3)OC[C@]4(C)C(N)=O)C(F)(F)F)cc(OC3CC3)c2n1` [Example 405], the EC50 is more than 200 nM. For `CC(C)(O)c1ccc2cc(C(=O)NC[C@](O)(c3cc4c(c(-c5ccc(F)cc5)n3)OC[C@]4(C)C(N)=O)C(F)(F)F)cc(OC3CC3)c2n1` [Example 407] the value was more than 200 nM; for `CNC(=O)Nc1cc(C(=O)NC[C@](O)(c2cc3c(c(-c4ccc(F)cc4)n2)OC[C@]3(C)C(N)=O)C(F)(F)F)cc2cccnc12` [Example 409], less than 200 nM. In the case of `C[C@]1(C(N)=O)COc2c1cc([C@@](O)(CNC(=O)c1cc(NC(=O)N3CCC3)c3ncccc3c1)C(F)(F)F)nc2-c1ccc(F)cc1` [Example 410], the EC50 was less than 200 nM.
